In PubChem BioAssay AID248 (DTP/NCI, 2004):
Values joined by “and” are separate entries in the source; they are usually repeats but may differ in a detail not shown here. Equal entries are not always repeated. Inconclusive results and toxic doses are left out.

System: L1210 leukemia ip in BDF1 mice, survival T/C
Experiment: NCI In Vivo Anticancer Drug Screen. Data for tumor model L1210 Leukemia (intraperitoneal) in B6D2F1 (BDF1) mice
Details: endpoint: mean survival time, higher = longer survival
Procedure, shortened: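 Antitumor effect is assessed in tumor-bearing animals. Survival in the compound arm is compared with a vehicle-dosed control arm and expressed as their quotient.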

O=C(Nc1ccc(C2=NCCN2)cc1)Nc1cccc(NC(=O)Nc2ccc(C3=NCCN3)cc2)c1
T/C (dose: 7.5 mg/kg/injection, schedule: Q01DX Z (ip), vehicle: carboxymethylcellulose (CMC)): 119 % of control
T/C (dose: 7.5 mg/kg/injection, schedule: Q#A X Z (ip), vehicle: carboxymethylcellulose (CMC)): 180 % of control
T/C (dose: 15.0 mg/kg/injection, schedule: Q01DX Z (ip), vehicle: carboxymethylcellulose (CMC)): 189 % of control
T/C (dose: 15.0 mg/kg/injection, schedule: Q#A X Z (ip), vehicle: carboxymethylcellulose (CMC)): 215 % of control
T/C (dose: 22.5 mg/kg/injection, schedule: Q03DX Z (ip), vehicle: carboxymethylcellulose (CMC)): 122 % of control
T/C (dose: 30.0 mg/kg/injection, schedule: Q01DX Z (ip), vehicle: carboxymethylcellulose (CMC)): 206 % of control and 227 % of control and 315 % of control
T/C (dose: 30.0 mg/kg/injection, schedule: Q01DX Z (sc), vehicle: carboxymethylcellulose (CMC)): 101 % of control and 107 % of control
T/C (dose: 30.0 mg/kg/injection, schedule: Q#A X Z (ip), vehicle: carboxymethylcellulose (CMC)): 220 % of control
T/C (dose: 60.0 mg/kg/injection, schedule: Q01DX004 (im), vehicle: olive oil, sesame oil, peanut oil): 92 % of control
T/C (dose: 60.0 mg/kg/injection, schedule: Q01DX Z (ip), vehicle: carboxymethylcellulose (CMC)): 216 % of control and 255 % of control and 337 % of control
T/C (dose: 60.0 mg/kg/injection, schedule: Q01DX Z (sc), vehicle: carboxymethylcellulose (CMC)): 97 % of control and 102 % of control
T/C (dose: 60.0 mg/kg/injection, schedule: Q#A X Z (ip), vehicle: carboxymethylcellulose (CMC)): 234 % of control
T/C (dose: 62.5 mg/kg/injection, schedule: Q## X009 (oral), vehicle: saline): 98 % of control
T/C (dose: 74.0 mg/kg/injection, schedule: Q01DX Z (ip), vehicle: carboxymethylcellulose (CMC)): 280 % of control
T/C (dose: 90.0 mg/kg/injection, schedule: Q03DX Z (ip), vehicle: carboxymethylcellulose (CMC)): 227 % of control
T/C (dose: 120.0 mg/kg/injection, schedule: Q01DX004 (im), vehicle: olive oil, sesame oil, peanut oil): 102 % of control
T/C (dose: 120.0 mg/kg/injection, schedule: Q01DX Z (ip), vehicle: carboxymethylcellulose (CMC)): 225 % of control and 234 % of control and 331 % of control
T/C (dose: 120.0 mg/kg/injection, schedule: Q01DX Z (oral), vehicle: carboxymethylcellulose (CMC)): 98 % of control
T/C (dose: 120.0 mg/kg/injection, schedule: Q01DX Z (sc), vehicle: carboxymethylcellulose (CMC)): 101 % of control and 104 % of control
T/C (dose: 120.0 mg/kg/injection, schedule: Q#A X Z (ip), vehicle: carboxymethylcellulose (CMC)): 218 % of control
T/C (dose: 125.0 mg/kg/injection, schedule: Q## X010 (oral), vehicle: saline): 95 % of control
T/C (dose: 148.0 mg/kg/injection, schedule: Q01DX Z (ip), vehicle: carboxymethylcellulose (CMC)): 271 % of control
T/C (dose: 180.0 mg/kg/injection, schedule: Q03DX Z (ip), vehicle: carboxymethylcellulose (CMC)): 265 % of control
T/C (dose: 210.0 mg/kg/injection, schedule: Q07DX Z (ip), vehicle: carboxymethylcellulose (CMC)): 194 % of control
T/C (dose: 222.0 mg/kg/injection, schedule: Q01DX Z (ip), vehicle: carboxymethylcellulose (CMC)): 204 % of control
T/C (dose: 240.0 mg/kg/injection, schedule: Q01DX004 (im), vehicle: olive oil, sesame oil, peanut oil): 101 % of control
T/C (dose: 240.0 mg/kg/injection, schedule: Q01DX Z (ip), vehicle: carboxymethylcellulose (CMC)): 223 % of control and 260 % of control and 309 % of control
T/C (dose: 240.0 mg/kg/injection, schedule: Q01DX Z (oral), vehicle: carboxymethylcellulose (CMC)): 97 % of control
T/C (dose: 240.0 mg/kg/injection, schedule: Q01DX Z (sc), vehicle: carboxymethylcellulose (CMC)): 95 % of control and 105 % of control
T/C (dose: 240.0 mg/kg/injection, schedule: Q#A X Z (ip), vehicle: carboxymethylcellulose (CMC)): 182 % of control
T/C (dose: 250.0 mg/kg/injection, schedule: Q## X010 (oral), vehicle: saline): 102 % of control
T/C (dose: 300.0 mg/kg/injection, schedule: Q01DX001 (ip), vehicle: carboxymethylcellulose (CMC)): 172 % of control
T/C (dose: 333.0 mg/kg/injection, schedule: Q01DX Z (ip), vehicle: carboxymethylcellulose (CMC)): 178 % of control
T/C (dose: 360.0 mg/kg/injection, schedule: Q03DX Z (ip), vehicle: carboxymethylcellulose (CMC)): 253 % of control
T/C (dose: 420.0 mg/kg/injection, schedule: Q07DX Z (ip), vehicle: carboxymethylcellulose (CMC)): 190 % of control
T/C (dose: 480.0 mg/kg/injection, schedule: Q01DX004 (im), vehicle: olive oil, sesame oil, peanut oil): 106 % of control
T/C (dose: 480.0 mg/kg/injection, schedule: Q01DX Z (ip), vehicle: carboxymethylcellulose (CMC)): 177 % of control and 215 % of control
T/C (dose: 480.0 mg/kg/injection, schedule: Q01DX Z (oral), vehicle: carboxymethylcellulose (CMC)): 97 % of control
T/C (dose: 480.0 mg/kg/injection, schedule: Q01DX Z (sc), vehicle: carboxymethylcellulose (CMC)): 105 % of control and 108 % of control
T/C (dose: 500.0 mg/kg/injection, schedule: Q01DX Z (ip), vehicle: carboxymethylcellulose (CMC)): 156 % of control
T/C (dose: 500.0 mg/kg/injection, schedule: Q## X009 (oral), vehicle: saline): 98 % of control
T/C (dose: 720.0 mg/kg/injection, schedule: Q03DX Z (ip), vehicle: carboxymethylcellulose (CMC)): 252 % of control
T/C (dose: 840.0 mg/kg/injection, schedule: Q07DX Z (ip), vehicle: carboxymethylcellulose (CMC)): 227 % of control
T/C (dose: 960.0 mg/kg/injection, schedule: Q01DX Z (oral), vehicle: carboxymethylcellulose (CMC)): 97 % of control
T/C (dose: 1440.0 mg/kg/injection, schedule: Q03DX Z (ip), vehicle: carboxymethylcellulose (CMC)): 231 % of control
T/C (dose: 1680.0 mg/kg/injection, schedule: Q07DX Z (ip), vehicle: carboxymethylcellulose (CMC)): 239 % of control
T/C (dose: 1920.0 mg/kg/injection, schedule: Q01DX Z (oral), vehicle: carboxymethylcellulose (CMC)): 98 % of control
T/C (dose: 3360.0 mg/kg/injection, schedule: Q07DX Z (ip), vehicle: carboxymethylcellulose (CMC)): 300 % of control
